One test relates to platelets. Briefly: Flow cytometry of FITC-TAT loading into platelets in the presence of platelet anti-aggregation compounds. To be noted: 100 μM FITC-TAT, 60 minutes, loading buffer, 37° C. The class given is cell-based. As to the method:
FIG. 3 is a flow cytometry histogram of samples incubated with 100 μM FITC-TAT in the presence of platelet anti-aggregation compounds PGE1, GR144053, and eptifibatide.
Re-suspend platelets in loading buffer (Table 1) or desired incubation solution at a concentration of 500,000 platelets/μL and incubate at 37° C. with low frequency agitation on a rocker for up to 3 hours.
Wash platelets with loading buffer (Table 1) 3× to remove unloaded agents (e.g., FITC-TAT, FITC-labeled magnetic nanoparticles) and use the remaining sample for plate reader, flow cytometer, and/or microscope analysis.
The results for the above formulation are provided herein. A Tecan Infinite M200 Pro plate reader was used for quantification of MRI agent loading. A Novocyte flow cytometer was used to determine both MRI agent loading and percent of platelets effectively loaded. An Olympus microscope was used to visualize the loading into platelets.
Negative controls included 0 μM FITC-TAT in loading buffer and 50 μM fluorescein in loading buffer. All samples were incubated in loading buffer at 37° C. with low frequency agitation on a rocker.
Background: A flow cytometer gives signals particle by particle.

The test system of a further test is platelets (400 K/μL). Briefly: Magnetic resonance imaging of loaded platelet samples. To be noted: positive control. The text has this: FIGS. 9A-B show a schematic (FIG. 9A) and magnetic resonance imaging (FIG. 9B).
FIGS. 9A-B show a schematic (FIG. 9A) and magnetic resonance imaging (FIG. 9B). […] Sample 1A included loading buffer and platelets (400 K/μL), sample 1B included loading buffer alone, sample 2A included loading buffer, Gd-DOTA-CPP-FITC, and platelets (400 K/μL), and sample 2B included loading buffer and Gd-DOTA-FITC-CPP only (washed) as another negative control.

SMILES strings stand for the structures. Peptide text beside a SMILES is read from it.

As to `Cl.Cl.Cl.N=C(N)c1ccc(N2CCN(C3CCN(CC(=O)O)CC3)CC2)cc1` [GR144053], the “effect of anti-aggregation compound on platelet loading / distribution of FITC-CPP (flow cytometry histogram)” value in the test with platelets is reported as “little to no effect”. As for `[Cl][Gd]([Cl])[Cl]` [GdCl3], the “detection by magnetic resonance imaging” value with platelets (400 K/μL) (100 μM) and with platelets (400 K/μL) (100 mM) was “detection” in each case. For the compound `CCCCC[C@H](O)/C=C/[C@H]1[C@H](O)CC(=O)[C@@H]1CCCCCCC(=O)O` [PGE1, Prostaglandin E1], the “effect of anti-aggregation compound on platelet loading / distribution of FITC-CPP (flow cytometry histogram)” value with platelets is recorded as “improved platelet loading”. Take `N=C(N)NCCCC[C@@H]1NC(=O)CCSSC[C@@H](C(N)=O)NC(=O)[C@@H]2CCCN2C(=O)[C@H](Cc2c[nH]c3ccccc23)NC(=O)[C@H](CC(=O)O)NC(=O)CNC1=O` [eptifibatide] (HELM PEPTIDE1{[O=C(CCS[*:3])[*:2]].[N=C(N)NCCCC[C@H](N[*:1])C(=O)[*:2]].G.D.W.P.C.[am]}$PEPTIDE1,PEPTIDE1,1:R3-7:R3$$$V2.0): the “effect of anti-aggregation compound on platelet loading / distribution of FITC-CPP (flow cytometry histogram)” value with platelets is “little to no effect”.

Values taken from US20210189341A1, “PLATELET DIAGNOSTIC IMAGING AGENTS” (Cellphire, Inc., priority 2019, published 2021).
